Results: ChEMBL document CHEMBL1156106 (J Med Chem, 2009)

Tests used:
Mus musculus [1] = assay: Antidepressant activity in ip dosed mouse assessed as stimulation of locomotor activity; type: functional
Rattus norvegicus [2] = assay: Effect on behavioural activity in rat assessed as cocaine-induced lever response at 100 mg/kg, po pretreated with cocaine for 360 mins by drug-discrimination studies; type: functional
Rattus norvegicus [3] = assay: Effect on behavioural activity in rat assessed as cocaine-induced lever response at 25 mg/kg, po pretreated with cocaine for 180 mins by drug-discrimination studies; type: functional
Rattus norvegicus [4] = assay: Effect on behavioural activity in rat assessed as cocaine-induced lever response at 25 mg/kg, po pretreated with cocaine for 360 mins by drug-discrimination studies; type: functional
Rattus norvegicus [5] = assay: Effect on behavioural activity in rat assessed as cocaine-induced lever response at 50 mg/kg, po pretreated with cocaine for 45 mins by drug-discrimination studies; type: functional
Rattus norvegicus [6] = assay: Effect on behavioural activity in rat assessed as cocaine-induced lever response at 200 mg/kg, po pretreated with cocaine for 180 mins by drug-discrimination studies; type: functional
Rattus norvegicus [7] = assay: Effect on behavioural activity in rat assessed as cocaine-induced lever response at 5 mg/kg, po pretreated with cocaine for 90 mins by drug-discrimination studies; type: functional
Rattus norvegicus [8] = assay: Effect on behavioural activity in rat assessed as cocaine-induced lever response at 200 mg/kg, po pretreated with cocaine for 90 mins by drug-discrimination studies; type: functional
Rattus norvegicus [9] = assay: Effect on behavioural activity in rat assessed as cocaine-induced lever response at 5 mg/kg, ip pretreated with cocaine for 30 mins by drug-discrimination studies; type: functional; conditions: route intraperitoneal
Rattus norvegicus [10] = assay: Effect on behavioural activity in rat assessed as cocaine-induced lever response at 200 mg/kg, po pretreated with cocaine for 360 mins by drug-discrimination studies; type: functional
Rattus norvegicus [11] = assay: Effect on behavioural activity in rat assessed as cocaine-induced lever response at 10 mg/kg, ip pretreated with cocaine for 30 mins by drug-discrimination studies; type: functional; conditions: route intraperitoneal
Rattus norvegicus [12] = assay: Effect on behavioural activity in rat assessed as cocaine-induced lever response at 200 mg/kg, po pretreated with cocaine for 45 mins by drug-discrimination studies; type: functional
Mus musculus [13] = assay: Antidepressant activity in ip dosed mouse assessed as duration of locomotor activity; type: functional
Rattus norvegicus [14] = assay: Effect on behavioural activity in rat assessed as cocaine-induced lever response at 5 mg/kg, po pretreated with cocaine for 360 mins by drug-discrimination studies; type: functional
Rattus norvegicus [15] = assay: Effect on behavioural activity in rat assessed as cocaine-induced lever response at 10 mg/kg, po pretreated with cocaine for 45 mins by drug-discrimination studies; type: functional
Rattus norvegicus [16] = assay: Effect on behavioural activity in po dosed rat assessed as cocaine-induced lever response pretreated with cocaine by drug-discrimination studies; type: functional
Rattus norvegicus [17] = assay: Effect on behavioural activity in rat assessed as cocaine-induced lever response at 2.5 mg/kg, ip pretreated with cocaine for 30 mins by drug-discrimination studies; type: functional; conditions: route intraperitoneal
Rattus norvegicus [18] = assay: Effect on behavioural activity in rat assessed as cocaine-induced lever response at 2.5 mg/kg, po pretreated with cocaine for 90 mins by drug-discrimination studies; type: functional
Rattus norvegicus [19] = assay: Effect on behavioural activity in rat assessed as cocaine-induced lever response at 10 mg/kg, po pretreated with cocaine for 180 mins by drug-discrimination studies; type: functional
Rattus norvegicus [20] = assay: Effect on behavioural activity in rat assessed as cocaine-induced lever response at 50 mg/kg, po pretreated with cocaine for 90 mins by drug-discrimination studies; type: functional
Rattus norvegicus [21] = assay: Effect on behavioural activity in rat assessed as cocaine-induced lever response at 5 mg/kg, po pretreated with cocaine for 180 mins by drug-discrimination studies; type: functional
Rattus norvegicus [22] = assay: Effect on behavioural activity in rat assessed as cocaine-induced lever response at 100 mg/kg, po pretreated with cocaine for 180 mins by drug-discrimination studies; type: functional
Rattus norvegicus [23] = assay: Effect on behavioural activity in rat assessed as cocaine-induced lever response at 50 mg/kg, po pretreated with cocaine for 180 mins by drug-discrimination studies; type: functional
Mus musculus [24] = assay: Antidepressant activity in ip dosed mouse assessed as time to reach peak stimulation of locomotor activity; type: functional
[25] = target: Sodium-dependent serotonin transporter (Homo sapiens, UniProt P31645); assay: biochemical; type: cell-based, HEK293
Rattus norvegicus [26] = assay: Effect on behavioural activity in rat assessed as cocaine-induced lever response at 100 mg/kg, po pretreated with cocaine for 45 mins by drug-discrimination studies; type: functional
Rattus norvegicus [27] = assay: Effect on behavioural activity in rat assessed as cocaine-induced lever response at 2.5 mg/kg, po pretreated with cocaine for 180 mins by drug-discrimination studies; type: functional
Rattus norvegicus [28] = assay: Effect on behavioural activity in rat assessed as cocaine-induced lever response at 10 mg/kg, po pretreated with cocaine for 90 mins by drug-discrimination studies; type: functional
[29] = target: Sodium-dependent noradrenaline transporter (Homo sapiens, UniProt P23975); assay: Displacement of [125I]RTI55 from cloned human NET expressed in HEK293 cells; type: cell-based
Rattus norvegicus [30] = assay: Effect on behavioural activity in rat assessed as cocaine-induced lever response at 25 mg/kg, ip pretreated with cocaine for 30 mins by drug-discrimination studies; type: functional; conditions: route intraperitoneal
Rattus norvegicus [31] = assay: Effect on behavioural activity in rat assessed as cocaine-induced lever response at 50 mg/kg, po pretreated with cocaine for 360 mins by drug-discrimination studies; type: functional
Rattus norvegicus [32] = assay: Effect on behavioural activity in rat assessed as cocaine-induced lever response at 2.5 mg/kg, po pretreated with cocaine for 45 mins by drug-discrimination studies; type: functional
Rattus norvegicus [33] = assay: Effect on behavioural activity in rat assessed as cocaine-induced lever response at 25 mg/kg, po pretreated with cocaine for 90 mins by drug-discrimination studies; type: functional
Rattus norvegicus [34] = assay: Effect on behavioural activity in rat assessed as cocaine-induced lever response at 10 mg/kg, po pretreated with cocaine for 360 mins by drug-discrimination studies; type: functional
Rattus norvegicus [35] = assay: Effect on behavioural activity in rat assessed as cocaine-induced lever response at 25 mg/kg, po pretreated with cocaine for 45 mins by drug-discrimination studies; type: functional
Rattus norvegicus [36] = assay: Effect on behavioural activity in rat assessed as cocaine-induced lever response at 100 mg/kg, po pretreated with cocaine for 90 mins by drug-discrimination studies; type: functional
Rattus norvegicus [37] = assay: Effect on behavioural activity in rat assessed as cocaine-induced lever response at 2.5 mg/kg, po pretreated with cocaine for 360 mins by drug-discrimination studies; type: functional
Mus musculus [38] = assay: Antidepressant activity in ip dosed mouse assessed as stimulation of locomotor activity relative to cocaine; type: functional
Rattus norvegicus [39] = assay: Effect on behavioural activity in ip dosed rat assessed as cocaine-induced lever response pretreated with cocaine by drug-discrimination studies; type: functional
Rattus norvegicus [40] = assay: Effect on behavioural activity in rat assessed as cocaine-induced lever response at 5 mg/kg, po pretreated with cocaine for 45 mins by drug-discrimination studies; type: functional

Sequence of Sodium-dependent serotonin transporter (P31645 whole entry): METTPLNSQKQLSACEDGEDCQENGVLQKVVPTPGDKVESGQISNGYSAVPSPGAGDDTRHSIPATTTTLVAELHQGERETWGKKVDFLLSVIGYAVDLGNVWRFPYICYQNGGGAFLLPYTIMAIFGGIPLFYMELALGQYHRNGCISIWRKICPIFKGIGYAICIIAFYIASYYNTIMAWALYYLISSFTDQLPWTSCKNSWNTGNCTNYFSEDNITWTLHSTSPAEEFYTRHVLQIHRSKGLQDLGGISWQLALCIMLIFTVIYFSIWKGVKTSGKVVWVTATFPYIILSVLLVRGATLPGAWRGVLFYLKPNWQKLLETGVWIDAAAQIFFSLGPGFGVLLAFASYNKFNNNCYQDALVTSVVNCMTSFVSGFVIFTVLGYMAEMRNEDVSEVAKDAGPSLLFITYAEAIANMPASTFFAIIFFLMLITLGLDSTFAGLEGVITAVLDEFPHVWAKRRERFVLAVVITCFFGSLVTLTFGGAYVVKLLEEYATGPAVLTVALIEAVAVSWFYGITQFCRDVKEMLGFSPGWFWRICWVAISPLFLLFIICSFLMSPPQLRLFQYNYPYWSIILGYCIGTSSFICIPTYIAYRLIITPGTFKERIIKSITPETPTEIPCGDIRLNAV
Sequence of Sodium-dependent noradrenaline transporter (P23975 whole entry): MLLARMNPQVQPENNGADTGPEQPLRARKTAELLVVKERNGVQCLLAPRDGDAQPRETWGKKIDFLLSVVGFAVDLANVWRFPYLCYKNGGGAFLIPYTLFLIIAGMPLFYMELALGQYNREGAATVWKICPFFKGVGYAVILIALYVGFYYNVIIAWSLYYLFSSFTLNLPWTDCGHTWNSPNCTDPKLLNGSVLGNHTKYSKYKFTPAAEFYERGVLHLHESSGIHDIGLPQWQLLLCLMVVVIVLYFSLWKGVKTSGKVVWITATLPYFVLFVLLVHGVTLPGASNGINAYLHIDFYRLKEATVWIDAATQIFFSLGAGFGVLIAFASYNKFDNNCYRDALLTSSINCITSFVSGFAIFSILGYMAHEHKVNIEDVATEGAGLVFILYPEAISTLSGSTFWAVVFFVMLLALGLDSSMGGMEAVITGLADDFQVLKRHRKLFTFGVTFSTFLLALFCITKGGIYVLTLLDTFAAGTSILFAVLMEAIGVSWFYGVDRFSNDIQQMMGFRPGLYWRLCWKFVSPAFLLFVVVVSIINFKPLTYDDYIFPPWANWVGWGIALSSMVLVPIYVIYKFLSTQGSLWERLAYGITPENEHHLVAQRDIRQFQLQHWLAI

For `CC(NC(C)(C)C)C(=O)c1cccc(Br)c1` (stereo not given), the ED50 (Mus musculus [1]) was 13.5 mg/kg, the Activity (Rattus norvegicus [2]) was 14% and the Activity (Rattus norvegicus [3]) was 0%. For the same compound, the Activity (Rattus norvegicus [4]) was 0%, the Activity (Rattus norvegicus [5]) was 51% and the Activity (Rattus norvegicus [6]) was 5%. The Activity (Rattus norvegicus [7]) was 15%, the Activity (Rattus norvegicus [8]) was 100% and the Activity (Rattus norvegicus [9]) was 34.4%. The Activity (Rattus norvegicus [10]) was 34%, the Activity (Rattus norvegicus [11]) was 21% and the Activity (Rattus norvegicus [12]) was 100%. For the same compound, the Time (Mus musculus [13]) was 90 min, the Activity (Rattus norvegicus [14]) was 7% and the Activity (Rattus norvegicus [15]) was 0%. For the same compound, the ED50 (Rattus norvegicus [16]) was 52.9 mg/kg, the Activity (Rattus norvegicus [17]) was 0.3% and the Activity (Rattus norvegicus [18]) was 0%. It also gave an Activity (Rattus norvegicus [19]) of 0%, an Activity (Rattus norvegicus [20]) of 21% and an Activity (Rattus norvegicus [21]) of 0%. The Activity (Rattus norvegicus [22]) was 34%, the Activity (Rattus norvegicus [23]) was 0% and the “Time to peak locomotor stimulation” value (Mus musculus [24]) was 0 min. The Ki [25] was > 10 µM, the Activity (Rattus norvegicus [26]) was 67% and the Activity (Rattus norvegicus [27]) was 0%. The Activity (Rattus norvegicus [28]) was 0%, the Ki [29] was > 7.14 µM and the Activity (Rattus norvegicus [30]) was 83.6%. The Activity (Rattus norvegicus [31]) was 0%, the Activity (Rattus norvegicus [32]) was 13% and the Activity (Rattus norvegicus [33]) was 0%. It also gave an Activity (Rattus norvegicus [34]) of 0%, an Activity (Rattus norvegicus [35]) of 17% and an Activity (Rattus norvegicus [36]) of 56%. The Activity (Rattus norvegicus [37]) was 33%, the Activity (Mus musculus [38]) was 57% and the ED50 (Rattus norvegicus [39]) was 39.6 mg/kg. The Activity (Rattus norvegicus [40]) was 0%.
